The term IC50 denotes the concentration that gives 50% inhibition.

One assay deals with T1, human V1a receptor (Homo sapiens, UniProt P37288).
T1 construct: expressed in transfected cells; host or cells: CHO K1 (ATCC), also stably transfected with a modified aequorin
Description: Cellular in vitro assay for determining vasopressin receptor activity, V1a receptor cell line (CHO, aequorin luminescence). It counts as cell-based. Particulars: for IC50: CHO cell line transfected with human V1a receptor, [Arg]-vasopressin at EC50 concentration, read-out: IC50 hV1a; for ratio IC50 hV2/hV1a: selectivity ratio IC50 hV2 / IC50 hV1a. Summed up:
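Cells were plated the day before in medium containing 5 μg/ml coelenterazine and kept at 37° C. Compounds at various concentrations were then added for 10 minutes. Next, [Arg]-vasopressin at EC50 was applied and light output recorded at once, yielding IC50.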

Another assay deals with T2, human V2 receptor (Homo sapiens, UniProt P30518).
T2 construct: expressed in transfected cells; host or cells: CHO K1 (ATCC) expressing firefly luciferase under a CRE-responsive promoter
Description: Cellular in vitro assay for determining vasopressin receptor activity, V2 receptor cell line (CHO, CRE-luciferase). It counts as cell-based. Particulars: CHO cell line transfected with human V2 receptor; [Arg8]-vasopressin at EC50 concentration; read-out: IC50 hV2.

T2 sequence (P30518 whole entry): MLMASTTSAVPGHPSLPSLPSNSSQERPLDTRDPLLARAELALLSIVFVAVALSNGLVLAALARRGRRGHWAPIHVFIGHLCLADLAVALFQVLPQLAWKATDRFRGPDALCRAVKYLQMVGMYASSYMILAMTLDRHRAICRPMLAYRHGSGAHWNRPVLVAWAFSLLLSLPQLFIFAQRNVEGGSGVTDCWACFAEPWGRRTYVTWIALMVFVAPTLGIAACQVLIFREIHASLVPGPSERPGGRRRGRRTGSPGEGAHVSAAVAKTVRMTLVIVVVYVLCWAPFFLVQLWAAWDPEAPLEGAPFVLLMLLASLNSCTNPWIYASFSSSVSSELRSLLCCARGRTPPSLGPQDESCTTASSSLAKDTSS
T1 sequence (P37288 whole entry): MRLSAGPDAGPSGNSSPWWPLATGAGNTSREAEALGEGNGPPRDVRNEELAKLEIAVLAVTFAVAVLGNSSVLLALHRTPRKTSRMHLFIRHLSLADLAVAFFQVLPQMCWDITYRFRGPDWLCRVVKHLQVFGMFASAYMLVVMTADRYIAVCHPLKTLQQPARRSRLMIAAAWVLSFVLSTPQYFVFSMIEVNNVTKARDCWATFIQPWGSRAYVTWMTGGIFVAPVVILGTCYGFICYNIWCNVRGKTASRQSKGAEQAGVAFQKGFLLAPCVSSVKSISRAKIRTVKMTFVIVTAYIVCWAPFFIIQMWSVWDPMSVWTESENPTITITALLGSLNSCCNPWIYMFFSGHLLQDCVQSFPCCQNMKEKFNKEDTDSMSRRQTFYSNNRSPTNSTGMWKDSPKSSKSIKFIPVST

As to `CC1CN(C(=O)c2ncccc2-n2cnc(Cn3nc(-c4ccc(Cl)cc4)n(C[C@@H](O)C(F)(F)F)c3=O)n2)CCO1` (stereo partly drawn) [Example 466, 5-(4-Chlorophenyl)-2-{[1-(2-{[2-methylmorpholin-4-yl]carbonyl}pyridin-3-yl)-1H-1,2,4-triazol-3-yl]methyl}-4-[(2R)-3,3,3-trifluoro-2-hydroxypropyl]-2,4-dihydro-3H-1,2,4-triazol-3-one], the IC50 on human V1a receptor was found to be 710 nM; at human V2 receptor it was 66000 nM. In addition, the “ratio IC50 hV2/hV1a” value on human V1a receptor stood at 93.0.

Regarding `O=C(c1ncccc1-n1cnc(Cn2nc(-c3ccc(Cl)cc3)n(C[C@@H](O)C(F)(F)F)c2=O)n1)N1CCC(O)(C(F)(F)F)C1` (stereo partly drawn) [Example 468, 5-(4-Chlorophenyl)-2-{[1-(2-{[3-hydroxy-3-(trifluoromethyl)pyrrolidin-1-yl]carbonyl}pyridin-3-yl)-1H-1,2,4-triazol-3-yl]methyl}-4-[(2R)-3,3,3-trifluoro-2-hydroxypropyl]-2,4-dihydro-3H-1,2,4-triazol-3-one], at human V1a receptor, the IC50 was 420 nM and the “ratio IC50 hV2/hV1a” value was 76.2. For the same compound, the IC50 at human V2 receptor is 32000 nM.

For the compound `O=C(c1ncccc1-n1cnc(Cn2nc(-c3ccc(Cl)cc3)n(C[C@@H](O)C(F)(F)F)c2=O)n1)N1CCOC(C(F)(F)F)C1` (stereo partly drawn) [Example 470, 5-(4-Chlorophenyl)-4-[(2R)-3,3,3-trifluoro-2-hydroxypropyl]-2-{[1-(2-{[2-(trifluoromethyl)morpholin-4-yl]carbonyl}pyridin-3-yl)-1H-1,2,4-triazol-3-yl]methyl}-2,4-dihydro-3H-1,2,4-triazol-3-one], on human V1a receptor, the IC50 came to 750 nM and the “ratio IC50 hV2/hV1a” value turned out to be 42.7. In addition, the IC50 on human V2 receptor was determined as 32000 nM.

Regarding `O=C(c1ncccc1-n1cnc(Cn2nc(-c3ccc(Cl)cc3)n(C[C@@H](O)C(F)(F)F)c2=O)n1)N1CCCCC1` [Example 471, 5-(4-chlorophenyl)-2-({1-[2-(piperidin-1-ylcarbonyl)pyridin-3-yl]-1H-1,2,4-triazol-3-yl}methyl)-4-[(2R)-3,3,3-trifluoro-2-hydroxypropyl]-2,4-dihydro-3H-1,2,4-triazol-3-one], on human V1a receptor, the 50% inhibitory concentration (IC50) stood at 150 nM and the “ratio IC50 hV2/hV1a” value is 139.3. Also, on human V2 receptor, the half-inhibitory concentration (IC50) is 20900 nM.

As for `O=C(c1ncccc1-n1cnc(Cn2nc(-c3ccc(Cl)cc3)n(C[C@@H](O)C(F)(F)F)c2=O)n1)N1CCOCC1` [Example 472, 5-(4-Chlorophenyl)-2-({1-[2-(morpholin-4-ylcarbonyl)pyridin-3-yl]-1H-1,2,4-triazol-3-yl}methyl)-4-[(2R)-3,3,3-trifluoro-2-hydroxypropyl]-2,4-dihydro-3H-1,2,4-triazol-3-one], on human V1a receptor, the IC50 turned out to be 320 nM and the “ratio IC50 hV2/hV1a” value worked out at 206.3. For the same compound, the IC50 on human V2 receptor was 66000 nM.

As to `O=C(NC1(C(F)(F)F)CC1)c1ncccc1-n1cnc(Cn2nc(-c3ccc(Cl)cc3)n(C[C@@H](O)C(F)(F)F)c2=O)n1` [Example 473, 3-[3-({3-(4-Chlorophenyl)-5-oxo-4-[(2R)-3,3,3-trifluoro-2-hydroxypropyl]-4,5-dihydro-1H-1,2,4-triazol-1-yl}methyl)-1H-1,2,4-triazol-1-yl]-N-[1-(trifluoromethyl)cyclopropyl]pyridine-2-carboxamide], at human V1a receptor, the concentration for half-maximal inhibition (IC50) is 92 nM and the “ratio IC50 hV2/hV1a” value came out at 19.6. On human V2 receptor, the IC50 was determined as 1800 nM.

Consider `CC1(C)COCCN1C(=O)c1ncccc1-n1cnc(Cn2nc(-c3ccc(Cl)cc3)n(C[C@H](O)C(F)(F)F)c2=O)n1` [Example 474, 5-(4-Chlorophenyl)-2-[(1-{2-[(3,3-dimethylmorpholin-4-yl)carbonyl]pyridin-3-yl}-1H-1,2,4-triazol-3-yl)methyl]-4-[(2S)-3,3,3-trifluoro-2-hydroxypropyl]-2,4-dihydro-3H-1,2,4-triazol-3-one], for which the half-inhibitory concentration (IC50) was 24 nM at human V1a receptor and 22500 nM on human V2 receptor. The “ratio IC50 hV2/hV1a” value at human V1a receptor is given as 937.5.

As to `CC1(C)COCCN1C(=O)c1ncccc1-n1cnc(Cn2nc(-c3ccc(Cl)cc3)n(C[C@@H](O)C(F)(F)F)c2=O)n1` [Example 475, 5-(4-Chlorophenyl)-2-[(1-{2-[(3,3-dimethylmorpholin-4-yl)carbonyl]pyridin-3-yl}-1H-1,2,4-triazol-3-yl)methyl]-4-[(2R)-3,3,3-trifluoro-2-hydroxypropyl]-2,4-dihydro-3H-1,2,4-triazol-3-one], at human V1a receptor, the IC50 worked out at 90 nM and the “ratio IC50 hV2/hV1a” value came to 733.3. Also, the 50% inhibitory concentration (IC50) on human V2 receptor is 66000 nM.

With `O=C(c1ncccc1-n1cnc(Cn2nc(-c3ccc(Cl)cc3)n(C[C@@H](O)C(F)(F)F)c2=O)n1)N1CCC[C@H]1C(F)(F)F` [Example 477, 5-(4-Chlorophenyl)-4-[(2R)-3,3,3-trifluoro-2-hydroxypropyl]-2-{[1-(2-{[(2S)-2-(trifluoromethyl)pyrrolidin-1-yl]carbonyl}pyridin-3-yl)-1H-1,2,4-triazol-3-yl]methyl}-2,4-dihydro-3H-1,2,4-triazol-3-one], at human V1a receptor, the IC50 came to 460 nM and the “ratio IC50 hV2/hV1a” value was 23.9. The half-inhibitory concentration (IC50) at human V2 receptor came out at 11000 nM.

In the case of `O=C(c1ncccc1-n1cnc(Cn2nc(-c3ccc(Cl)cc3)n(C[C@@H](O)C(F)(F)F)c2=O)n1)N1CCC[C@@H]1C(F)(F)F` [Example 478, 5-(4-Chlorophenyl)-4-[(2R)-3,3,3-trifluoro-2-hydroxypropyl]-2-{[1-(2-{[(2R)-2-(trifluoromethyl)pyrrolidin-1-yl]carbonyl}pyridin-3-yl)-1H-1,2,4-triazol-3-yl]methyl}-2,4-dihydro-3H-1,2,4-triazol-3-one], the IC50 at human V1a receptor was 290 nM; on human V2 receptor, 7800 nM. The “ratio IC50 hV2/hV1a” value at human V1a receptor is recorded as 26.9.

On to `O=C(c1ncccc1-n1cnc(Cn2nc(-c3ccc(Cl)cc3)n(C[C@@H](O)C(F)(F)F)c2=O)n1)N1CCS(=O)(=O)CC1` [Example 479, 5-(4-Chlorophenyl)-2-[(1-{2-[(1,1-dioxidothiomorpholin-4-yl)carbonyl]pyridin-3-yl}-1H-1,2,4-triazol-3-yl)methyl]-4-[(2R)-3,3,3-trifluoro-2-hydroxypropyl]-2,4-dihydro-3H-1,2,4-triazol-3-one], for which the IC50 at human V1a receptor is 1400 nM; on human V2 receptor, 32000 nM. In addition, on human V1a receptor, the “ratio IC50 hV2/hV1a” value came to 22.9.

Take `CN(CC1CC1)C(=O)c1ncccc1-n1cnc(Cn2nc(-c3ccc(Cl)cc3)n(C[C@@H](O)C(F)(F)F)c2=O)n1` [Example 482, 3-[3-({3-(4-Chlorophenyl)-5-oxo-4-[(2R)-3,3,3-trifluoro-2-hydroxypropyl]-4,5-dihydro-1H-1,2,4-triazol-1-yl}methyl)-1H-1,2,4-triazol-1-yl]-N-(cyclopropylmethyl)-N-methylpyridine-2-carboxamide]: the figures for the IC50 on human V1a receptor and on human V2 receptor were 99 nM and 32000 nM, respectively. For the same compound, the “ratio IC50 hV2/hV1a” value at human V1a receptor is given as 323.2.

Regarding `CC1(NC(=O)c2ncccc2-n2cnc(Cn3nc(-c4ccc(Cl)cc4)n(C[C@@H](O)C(F)(F)F)c3=O)n2)CC1` [Example 483, 3-[3-({3-(4-Chlorophenyl)-5-oxo-4-[(2R)-3,3,3-trifluoro-2-hydroxypropyl]-4,5-dihydro-1H-1,2,4-triazol-1-yl}methyl)-1H-1,2,4-triazol-1-yl]-N-(1-methylcyclopropyl)pyridine-2-carboxamide], at human V1a receptor, the IC50 is 37 nM and the “ratio IC50 hV2/hV1a” value came out at 106.8. On human V2 receptor, the IC50 stood at 3950 nM.

Source of the values: patent publication US11173151B2, “Substituted triazole derivatives and uses thereof” (BAYER AKTIENGESELLSCHAFT, priority 2017, dated 2021).
